Assay results from patent US3940482A, “Solubilization of the zinc salt of 1-hydroxy-2-pyridinethione” (priority 1973, dated 1976).
Each block holds one compound with its values, some of them ahead of it.

What was measured:
[1] = Solubilization of zinc pyridinethione in anionic shampoo base (visual observations); format: physicochemical
[2] = Solubilization of zinc pyridinethione in water by DETA, DGA, PEI-1000 (visual observations); format: physicochemical
Description: H2 O. This 48.5 g. slurry is stirred for 1 minute. […] Also, to 0.75 g. […] H2 O. The 45.50 g. slurry is stirred for 1 minute.
**A.E. means active ingredients.

[3] = Solubilization of zinc pyridinethione in amphoteric shampoo base (visual observations)
[4] = Effect of chelating/sequestering agent on biocidal activity of zinc pyridinethione; conditions: aliphatic polyamine, up to two-fold excess
[5] = less than one part EDTA per part pyridinethione salt shows this effect; cited from earlier work

Structure (SMILES): NCCNCCN [DETA, diethylene triamine]
Visual observation at pH 9.2 ([1]; anionic shampoo, pH decreased with HCl to 9.2): slightly cloudy
pH at which solution starts clouding up ([2]; pH adjusted downward with HCl): ~9.2
precipitation at pH 8.8 ([2]; pH adjusted downward with HCl, pH 8.8): ~50%
pH down to which shampoo remains clear ([3]; pH adjustment with HCl, smoky color at this pH): ~9.3
effect on antimicrobial activity of zinc pyridinethione [4]: does not reduce the antimicrobial activity

Visual - unadjusted [1]: Cloudy shampoo
pH - unadjusted ([1]; anionic shampoo, 1.5% zinc pyridinethione, 3.0% solubilizer): 9.0
zinc pyridinethione soluble (visual, unadjusted pH) ([1]; anionic shampoo, unadjusted pH): < 10%
Solubility of zinc pyridinethione on stirring at room temperature for 3 minutes [2]: Less than 10%
effectiveness as solubilizing agent for heavy metal salts of pyridinethione [2]: ineffective
pH of solution unadjusted ([2]; 1.5% zinc pyridinethione, 3.0% solubilizer in water): 11.2
pH - unadjusted ([3]; 1.5% zinc pyridinethione, 3.0% solubilizer): 9.6
Structure (SMILES): NCCOCCO [DGA, diglycolamine]
Visual observation: hot plate heating until 110°F. [2]: No greater solubility. Zinc pyridinethione quickly settles

Structure (SMILES): O=C(O)CN(CCN(CC(=O)O)CC(=O)O)CC(=O)O [ethylenediamine tetraacetic acid]
effect on biocidal activity of zinc pyridinethione [5]: very deleterious effect
